Test results: patent US9714228B2, “Dihydrofuran derivatives as insecticidal compounds” (Syngenta Participations AG, priority 2010, dated 2017)

What was measured:
Assay type in all cases: in vivo
Spodoptera littoralis [1] = test: Spodoptera littoralis (systemic), salad grown on treated agar, eggs; details: 120 h, application rate 12.5 ppm, checked 5 days after infestation (mortality, repellent effect, feeding behavior, growth regulation)
From the text: Spodoptera littoralis (Systemic) (Egyptian Cotton Leaf Worm) Test compounds were applied by pipette into 24 well plates and mixed with agar. Salad seeds were placed on the agar and the multi well plate is closed by another plate which contains also agar. After 7 days the roots have absorbed the compound and the salad has grown into the lid plate. The salad leafs were now cut off into the lid plate. Spodoptera eggs were pipette through a plastic stencil on a humid gel blotting paper and the plate closed with it. The samples are checked for mortality, repellent effect, feeding behavior, and growth regulation 5 days after infestation. Application rate: 12.5 ppm

Spodoptera littoralis [2] = test: Spodoptera littoralis, sprayed cotton leaf discs, L1 larvae; details: foliar, 72 h, cotton leaf discs sprayed at 200 ppm, 3 days after treatment
From the text: Spodoptera littoralis (Egyptian Cotton Leafworm): Cotton leaf discs were placed on agar in a 24-well microtiter plate and sprayed with test solutions at an application rate of 200 ppm. After drying, the leaf discs were infested with 5 L1 larvae. The samples were checked for mortality, feeding behavior, and growth regulation 3 days after treatment (DAT).

Heliothis virescens = test: Heliothis virescens, eggs on treated artificial diet; details: 96 h, 200 ppm (concentration in well 18 ppm), 4 days incubation
Method: Heliothis virescens (Tobacco Budworm): Eggs (0-24 h old) were placed in 24-well microtiter plate on artificial diet and treated with test solutions at an application rate of 200 ppm (concentration in well 18 ppm) by pipetting. After an incubation period of 4 days, samples were checked for egg mortality, larval mortality, and growth regulation.

Plutella xylostella = test: Plutella xylostella, L2 larvae on treated artificial diet; details: 144 h, 200 ppm (concentration in well 18 ppm), 6 days incubation
Method: (§1) Plutella xylostella (Diamond Back Moth): 24-well microtiter plate (MTP) with artificial diet was treated with test solutions at an application rate of 200 ppm (concentration in well 18 ppm) by pipetting. After drying, the MTPs were infested with L2 larvae (7-12 per well). After an incubation period of 6 days, samples were checked for larval mortality and growth regulation.

Diabrotica balteata = test: Diabrotica balteata, L2 larvae on treated artificial diet; details: 120 h, 200 ppm (concentration in well 18 ppm), 5 days incubation
Method: as §1, with “Diabrotica balteata (Corn Root Worm): A” for “Plutella xylostella (Diamond Back Moth):”, “(6-10” for “(7-12”, “5” for “6”

Myzus persicae = Myzus persicae (sachet), mixed population, sucrose solution; details: 120 h, application rate 12.5 ppm, mortality 5 days after infestation
From the text: Myzus persicae (Sachet) (Green Peach Aphid) Mixed Population Test compounds were applied by pipette into 24 well plates and mixed with Sucrose solution. The plates were closed with a stretched Parafilm. A plastic stencil with 24 holes is placed onto the plate and infested pea seedlings were placed directly on the Parafilm. The infested plate is closed with a gel blotting paper and another plastic stencil and then turned upside down. 5 days after infestation the samples were checked on mortality. Application rate: 12.5 ppm.

Thrips tabaci = test: Thrips tabaci, sprayed sunflower leaf discs; details: foliar, 168 h, sunflower leaf discs sprayed at 200 ppm, mixed ages, mortality after 7 days
Method: Thrips tabaci (Onion Thrips): Sunflower leaf discs were placed on agar in a 24-well microtiter plate and sprayed with test solutions at an application rate of 200 ppm. After drying, the leaf discs were infested with an […] population of mixed ages. After an incubation period of 7 days, samples were checked for mortality.

Tetranychus urticae = test: Tetranychus urticae, sprayed bean leaf discs; details: foliar, 192 h, bean leaf discs sprayed at 200 ppm, mixed ages, checked 8 days later
From the text: Tetranychus urticae (Two-Spotted Spider Mite): Bean leaf discs on agar in 24-well microtiter plates were sprayed with test solutions at an application rate of 200 ppm. After drying, the leaf discs are infested with mite populations of mixed ages. 8 days later, discs are checked for egg mortality, larval mortality, and adult mortality.

Cc1cc(C2=COC(c3cc(Cl)cc(Cl)c3)(C(F)(F)F)C2)ccc1C(=O)NC1C[S+]([O-])C1 (stereo not drawn) [Compound D20]
≥ 80%: pest or weed control at 12.5 ppm (Spodoptera littoralis [1]) | pest or weed control at 200 ppm (Spodoptera littoralis [2]) | pest or weed control at 200 ppm (Heliothis virescens) | pest or weed control at 200 ppm (Plutella xylostella) | pest or weed control at 200 ppm (Diabrotica balteata) | pest or weed control at 12.5 ppm (Myzus persicae) | pest or weed control at 200 ppm (Thrips tabaci) | pest or weed control at 200 ppm (Tetranychus urticae)

Cc1cc(C2=COC(c3cc(Cl)cc(Cl)c3)(C(F)(F)F)C2)ccc1C(=O)NC1CS(=O)(=O)C1 (stereo not drawn) [Compound D24, 4-[5-(3,5-Dichloro-phenyl)-5-trifluoromethyl-4,5-dihydro-furan-3-yl]-N-(1,1-dioxo-1lambda*6*-thietan-3-yl)-2-methyl-benzamide]
≥ 80%: pest or weed control at 12.5 ppm (Spodoptera littoralis [1]) | pest or weed control at 200 ppm (Spodoptera littoralis [2]) | pest or weed control at 200 ppm (Heliothis virescens) | pest or weed control at 200 ppm (Plutella xylostella) | pest or weed control at 200 ppm (Diabrotica balteata) | pest or weed control at 12.5 ppm (Myzus persicae) | pest or weed control at 200 ppm (Thrips tabaci) | pest or weed control at 200 ppm (Tetranychus urticae)

Cc1cc(C2=COC(c3cc(Cl)cc(Cl)c3)(C(F)(F)F)C2)ccc1C(=O)NC1CSC1 (stereo not drawn) [Compound D21]
≥ 80%: pest or weed control at 12.5 ppm (Spodoptera littoralis [1]) | pest or weed control at 200 ppm (Spodoptera littoralis [2]) | pest or weed control at 200 ppm (Heliothis virescens) | pest or weed control at 200 ppm (Plutella xylostella) | pest or weed control at 200 ppm (Diabrotica balteata) | pest or weed control at 12.5 ppm (Myzus persicae) | pest or weed control at 200 ppm (Thrips tabaci) | pest or weed control at 200 ppm (Tetranychus urticae)
